Measurements: patent publication US20200392150A1, “Diaryl-B-Lactam Compound and Preparation Method and Pharmaceutical Use Thereof” (Fudan University, priority 2016, published 2020)
Entries after “also recorded” stand apart in the source; their conditions may differ.

Legend:
[1] = system: Bax, p53 and cleaved-PARP in HeLa cells; assay: Expression level of apoptosis associated proteins; format: cell-based, human; conditions: western blotting and qPCR
Method: A. Western blotting: After being treated with candidate compound, cells were harvested and lysed. Then, the lysate was isolated by ultracentrifuge and quantified by BCA assay according to the protocol. After being denatured, equivalent protein of each sample was separated by SDSPAGE gel and wet-transferred onto 0.22 μm nitrocellulose membrane. After being blocked by PBS containing 5% skim milk, the membrane was incubated with primary antibody at 4° C. overnight and secondary antibody at room temperature for 2 h and then visualized by enhanced chemiluminescence kit (Thermo Fisher, USA), sequentially.
B. Quantitative PCR assay: HeLa cells were treated with 69, 70 or 97. The expression level of mRNA of target proteins was tested with qPCR kit (Takara).

MDA-MB-231 cells = assay: Colony formation assay; format: cell-based, human; conditions: 48 h treatment, 7-10 days growth
Method: 1000 MDA-MB-231 cells per well were seeded into 6-well plate at a single cell density and were cultured at 37° C. for 48 h. After being treated with indicated concentrations of 69, 70 and 97, CA-4 as positive control, or diluent (0.2% DMSO) as negative control for 48 h, the agents containing medium was replaced by fresh medium to allow cell growth for additional 7-10 days. Then the cells were fixed with methanol and stained with gentian violet for 30 min.
The number of colonies which consisted of more than 50 cells were counted. The results were indicated as mean values from three independent determinations.

tubulin in SKOV-3 cells = assay: Immunofluorescent analysis of tubulin morphology; format: cell-based, human; conditions: 24 h
Method: After treatment with diluent (0.2% DMSO) or tested compounds at indicated concentrations for 24 h, SKOV-3 cells were fixed with methanol, permeabilized with 0.1% Triton X-100 in PBS and blocked by goat serum. Then the cells were incubated with a-tubulin antibody at 4° C. overnight, followed by incubation with Alexa 488 labeled secondary antibody (Jackson ImmunoResearch) at RT for 1 h. After being stained with DAPI, cells were examined and photographed with a Leica SP5 co-focal fluorescence microscope.

tubulin in Hela cells = assay: Immunoblotting analysis of polymerized/depolymerized tubulin; format: cell-based, human; conditions: 6 h
Method: After being treated with diluent (0.2% DMSO), tested compound, CA-4 or PTX for 6 h, Hela cells were lysed with microtubulestabilizing buffer, containing 100 mM PIPES, pH 6.8, 1 mM MgCl2, 2 mM EGTA, 0.5% NP-40, 2 M glycerol, 5 μM PTX and protease inhibitors cocktail (Roche), and the lysate was centrifuged at 15,000 rpm for 15 min. Supernatant containing depolymerized tubulin was carefully collected, whereas pellet (polymerized tubulin) was further dissolved in SDS-lysis buffer (Beyotime, China). Equal amounts of supernatant and dissolved pellet were subjected to immunoblotting analysis as described above using atubulin antibody (Proteintech).

Hela cells = assay: Cell cycle analysis; format: cell-based, human; conditions: 24 h
Method: 2*10^5 Hela cells per well were seeded into six-well plate and allowed to adhere overnight at 37° C. After treatment with indicated concentrations of 69, 70 and 97, CA-4 as positive control or diluent (0.2% DMSO) as negative control for 24 h, cells were harvested, washed twice with PBS and fixed with 75% ethanol at −20° C. overnight. Then cells were stained with propidium iodide dye (BD Biosciences) for 15 min in dark conditions at room temperature, followed by subjected to flow cytometry (Cytomics FC 500MPL, Beckman Coulter) detection. The results were analyzed by Multicycle AV (for Windows, version 320) software and indicated as mean values from three independent determinations.

KM mice = assay: Acute toxicity assay; format: in vivo; conditions: single i.p. injection
Method: KM mice were housed individually in a specific pathogen free facility. Groups of mice (n=10 per group, half male and half female) were injected intraperitoneally once with various dosages of 69 (95, 70, 50, 35, 25 mg/kg), 70 (500, 425, 350, 275, 200 mg/kg), 97 (275, 200, 150, 125 and 100 mg/kg) or vehicle (8.3% cremohorp EL and 8.3% alcohol in PBS) as negative control, respectively. 69, 70 and 97 was dissolved in cremeohore EL and alcohol mixture (1:1, v/v) and further diluted with PBS (1:5, v/v). The death of mice were monitored daily and recorded up to 14 days after injection.

[2] = system: human umbilical veinendothelial cells (HUVECs); assay: Capillary-like tube formation assay; format: cell-based; conditions: HUVECs on matrigel, 12 h
Method: […] matrigel (Corning) per well was added to 96-well plate and pre-incubated at 37° C. for 1 h for gelation. 3*10^4 human umbilical veinendothelial cells (HUVECs) in […] medium per well containing indicated concentrations of 69, 70 and 97, CA-4 as positive control, or diluent (0.2% DMSO) as negative control, respectively, were seeded to 96-well plates on the matrigel layer, followed by continual incubation at 37° C. for 12 h to allow capillary-like tube formation. Images were captured with a CCD Sensicam camera mounted on an Olympus inverted microscope. Representative data from three independent experiments were shown.

COc1ccc([C@H]2[C@H](C)C(=O)N2c2cc(OC)c(OC)c(OC)c2)cc1O [Compound 97, (3S,4R)-4-(3-hydroxy-4-methoxyphenyl)-3-methyl-1-(3,4,5-trimethoxyphenyl)azetidin-2-one]
expression of Bax, p53 and cleaved-PARP [1]: significantly promote the expression of the proapoptotic protein Bax, the tumor suppressor gene p53, and the cleaved DNA repair enzyme; also recorded: significantly induce the expression of Bax, p53 and cleaved-PARP
colony formation (MDA-MB-231 cells): significantly inhibit the formation of colonies; also recorded: dose-dependently reduced
tubulin assembly (immunofluorescence) (tubulin in SKOV-3 cells): significantly inhibit tubulin aggregation; also recorded: strongly inhibit tubulin assembly
polymerized tubulin (immunoblotting) (tubulin in Hela cells): significantly inhibit tubulin aggregation; also recorded: dramatically reduction of polymerized tubulin
cell cycle arrest (G2/M, mitotic arrest) (Hela cells): significantly arrest cells in the G2/M phase; also recorded: significantly induce cellular mitotic arrest
No. of dead mice 5-14 days (KM mice; 100 mg/kg): 0
No. of dead mice 1 day (KM mice; 100 mg/kg): 0
No. of dead mice 2 days (KM mice; 100 mg/kg): 0
No. of dead mice 3 days (KM mice; 100 mg/kg): 1
No. of dead mice 4 days (KM mice; 100 mg/kg): 0
Survival (%) on day 14 (KM mice; 100 mg/kg): 90%
Total death (KM mice; 100 mg/kg): 1
No. of dead mice 5-14 days (KM mice; 125 mg/kg): 0
No. of dead mice 1 day (KM mice; 125 mg/kg): 0
No. of dead mice 2 days (KM mice; 125 mg/kg): 2
No. of dead mice 3 days (KM mice; 125 mg/kg): 1
No. of dead mice 4 days (KM mice; 125 mg/kg): 0
Survival (%) on day 14 (KM mice; 125 mg/kg): 70%
Total death (KM mice; 125 mg/kg): 3
No. of dead mice 5-14 days (KM mice; 150 mg/kg): 0
No. of dead mice 1 day (KM mice; 150 mg/kg): 2
No. of dead mice 2 days (KM mice; 150 mg/kg): 4
No. of dead mice 3 days (KM mice; 150 mg/kg): 0
No. of dead mice 4 days (KM mice; 150 mg/kg): 0
Survival (%) on day 14 (KM mice; 150 mg/kg): 40%
Total death (KM mice; 150 mg/kg): 6
No. of dead mice 5-14 days (KM mice; 200 mg/kg): 0
No. of dead mice 1 day (KM mice; 200 mg/kg): 1
No. of dead mice 2 days (KM mice; 200 mg/kg): 4
No. of dead mice 3 days (KM mice; 200 mg/kg): 2
No. of dead mice 4 days (KM mice; 200 mg/kg): 0
Survival (%) on day 14 (KM mice; 200 mg/kg): 30%
Total death (KM mice; 200 mg/kg): 7
No. of dead mice 5-14 days (KM mice; 275 mg/kg): 0
No. of dead mice 1 day (KM mice; 275 mg/kg): 2
No. of dead mice 2 days (KM mice; 275 mg/kg): 4
No. of dead mice 3 days (KM mice; 275 mg/kg): 2
No. of dead mice 4 days (KM mice; 275 mg/kg): 1
Survival (%) on day 14 (KM mice; 275 mg/kg): 10%
Total death (KM mice; 275 mg/kg): 9
capillary-like tube formation [2]: significantly inhibit the formation of capillary-like structures; also recorded: almost completely disrupted the capillary-like tube formation
